The text below walks through data of ChEMBL document CHEMBL3621096, “Discovery of Potent and Selective Inhibitors for ADAMTS-4 through DNA-Encoded Library Technology (ELT)” (ACS Med Chem Lett, 2015).

A value given as a limit tells only on which side of the number the result lay.

In general, IC50 refers to the concentration that inhibits the measured activity by half.

This experiment deals with T1, A disintegrin and metalloproteinase with thrombospondin motifs 4 (Homo sapiens, UniProt O75173).
T1 sequence (O75173 whole entry): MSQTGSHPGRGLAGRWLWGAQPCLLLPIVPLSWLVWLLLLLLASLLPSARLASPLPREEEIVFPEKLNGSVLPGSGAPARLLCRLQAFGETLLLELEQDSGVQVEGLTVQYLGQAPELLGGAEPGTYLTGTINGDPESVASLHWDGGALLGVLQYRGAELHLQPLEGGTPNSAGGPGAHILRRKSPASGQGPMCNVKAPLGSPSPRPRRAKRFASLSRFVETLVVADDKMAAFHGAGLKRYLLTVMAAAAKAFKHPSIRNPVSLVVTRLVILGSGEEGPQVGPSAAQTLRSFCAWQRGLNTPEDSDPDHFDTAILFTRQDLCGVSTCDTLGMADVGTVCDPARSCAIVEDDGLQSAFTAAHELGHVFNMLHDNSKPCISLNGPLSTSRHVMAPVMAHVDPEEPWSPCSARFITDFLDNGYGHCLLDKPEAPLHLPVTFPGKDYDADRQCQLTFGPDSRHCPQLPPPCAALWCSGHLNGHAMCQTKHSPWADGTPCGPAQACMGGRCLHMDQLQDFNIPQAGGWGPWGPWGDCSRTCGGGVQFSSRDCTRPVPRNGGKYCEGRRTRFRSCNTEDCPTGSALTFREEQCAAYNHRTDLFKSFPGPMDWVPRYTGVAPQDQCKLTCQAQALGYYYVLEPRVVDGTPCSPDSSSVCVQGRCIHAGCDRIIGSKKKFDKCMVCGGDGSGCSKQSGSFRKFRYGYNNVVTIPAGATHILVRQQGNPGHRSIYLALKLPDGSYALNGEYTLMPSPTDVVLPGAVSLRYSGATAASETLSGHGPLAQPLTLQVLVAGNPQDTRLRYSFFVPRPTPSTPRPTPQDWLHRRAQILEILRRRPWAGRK
In words: Inhibition of recombinant human ADAMTS4 (213 to 575 amino acid residues) using WAAG-3R as substrate preincubated for 15 mins followed by substrate addition measured every 30 secs for 1 hr.
On to `CCN(C(=O)c1ccc(CNc2nc(NCc3ccccc3)nc(N3CCc4ccccc4C3)n2)cc1)c1cccc(C)c1`, for which the IC50 was 61 nM. Then `CCN(C)C(=O)c1ccc(CNc2nc(N3CCN(C)CC3)nc(N3CCc4ccccc4C3)n2)cc1`, with 5500 nM; and `CCN(C)C(=O)c1ccc(CNc2nc(NCCN(C)C)nc(N3CCc4cc(OC)c(OC)cc4C3)n2)cc1`, with 81 nM. In the case of `CCN(C)C(=O)c1ccc(CNc2ncnc(N3CCc4cc(OC)c(OC)cc4C3)n2)cc1` it was 1820 nM.

As to `COc1cc2c(cc1OC)CN(c1nc(NCCN3CCN(C)CC3)nc(NCc3ccc(C(=O)O)cc3)n1)CC2`, the IC50 is over 10000 nM. As to `CCN(C(=O)c1ccc(CNc2nc(NC3CCCCC3)nc(N3CCc4cc(OC)c(OC)cc4C3)n2)cc1)c1cccc(C)c1`, the half-maximal inhibitory concentration (IC50) came out at 284 nM. `CCN(C(=O)c1ccc(CNc2nc(Nc3ccccc3)nc(N3CCc4cc(OC)c(OC)cc4C3)n2)cc1)c1cccc(C)c1`: the IC50 came out at 181 nM. Then `CCN(C)C(=O)c1ccc(CNc2nc(N3CCN(C)CC3)nc(N3CCc4cc(OC)c(OC)cc4C3)n2)cc1`, with 8500 nM; and `CCN(C(=O)c1ccc(CNc2nc(NCCN3CCN(C)CC3)nc(N3CCc4ccccc4C3)n2)cc1)c1cccc(C)c1`, with 6 nM; and `COc1cc2c(cc1OC)CN(c1nc(NCCN3CCN(C)CC3)nc(NCc3ccccc3)n1)CC2`, with 3000 nM. Then `CNC(=O)c1ccc(CNc2nc(NCCN3CCN(C)CC3)nc(N3CCc4cc(OC)c(OC)cc4C3)n2)cc1`, with 3000 nM; and `CCN(C(=O)c1ccc(CNc2ncnc(N3CCc4ccccc4C3)n2)cc1)c1cccc(C)c1`, with 63 nM. As to `CCN(C(=O)c1ccc(CNc2ncnc(N3CCc4cc(F)ccc4C3)n2)cc1)c1cccc(C)c1`, the IC50 amounted to 370 nM. In the case of `CCN(C(=O)c1ccc(CNc2ncnc(N3CCc4cc(OC)c(OC)cc4C3)n2)cc1)c1cccc(C)c1` it was 23 nM; in that of `CCN(C(=O)c1ccc(CNc2nc(NCCN(C)C)nc(N3CCc4ccccc4C3)n2)cc1)c1cccc(C)c1`, 8 nM. In the case of `CCN(C(=O)c1ccc(CNc2nc(NCCc3ccco3)nc(N3CCc4cc(OC)c(OC)cc4C3)n2)cc1)c1cccc(C)c1` it was 163 nM; in that of `CCN(C)C(=O)c1ccc(CNc2ncnc(N3CCc4ccccc4C3)n2)cc1`, 1700 nM.

`CCN(C(=O)c1ccc(CNc2nc(NCc3ccccc3)nc(N3CCc4cc(OC)c(OC)cc4C3)n2)cc1)c1cccc(C)c1`: the half-inhibitory concentration (IC50) worked out at 60 nM. As for `CCN(C(=O)c1ccc(CNc2ncnc(N3CCCCC3)n2)cc1)c1cccc(C)c1`, the IC50 was over 10000 nM. As for `COc1cc2c(cc1OC)CN(c1nc(NCCN3CCN(C)CC3)nc(NCc3ccc(C(=O)Nc4cccc(C)c4)cc3)n1)CC2`, the IC50 was 518 nM. As to `CCN(C)C(=O)c1ccc(CNc2nc(NCCN3CCN(C)CC3)nc(N3CCc4cc(OC)c(OC)cc4C3)n2)cc1`, the IC50 turned out to be 64 nM. Turning to `CCN(C(=O)c1ccc(CNc2nc(NCCN(C)C)nc(N3CCc4cc(OC)c(OC)cc4C3)n2)cc1)c1cccc(C)c1`, the IC50 amounted to 14 nM. In the case of `CCN(C(=O)c1ccc(CNc2nc(NCCN3CCN(C)CC3)nc(N3CCCc4ccccc43)n2)cc1)c1cccc(C)c1` it was 6500 nM. In the case of `CCN(C(=O)c1ccc(CNc2nc(Cl)nc(N3CCc4cc(OC)c(OC)cc4C3)n2)cc1)c1cccc(C)c1` it was 102 nM; in that of `CCN(C(=O)c1ccc(CNc2nc(NC)nc(N3CCc4cc(OC)c(OC)cc4C3)n2)cc1)c1cccc(C)c1`, 30 nM; in that of `CCN(C(=O)c1ccc(CNc2ncnc(N3CCc4ccc(F)cc4C3)n2)cc1)c1cccc(C)c1`, 333 nM. On to `CCN(C(=O)c1ccc(CNc2nc(O)nc(N3CCc4cc(OC)c(OC)cc4C3)n2)cc1)c1cccc(C)c1`, for which the IC50 turned out to be 22 nM. In the case of `CCN(C(=O)c1ccc(CNc2nc(NCC(=O)O)nc(N3CCc4cc(OC)c(OC)cc4C3)n2)cc1)c1cccc(C)c1` it was 88 nM; in that of `CCN(C(=O)c1ccc(CNc2nc(NC(C)C)nc(N3CCc4cc(OC)c(OC)cc4C3)n2)cc1)c1cccc(C)c1`, 60 nM. As to `CCN(C(=O)c1ccc(CNc2ncnc(N3Cc4ccccc4C3)n2)cc1)c1cccc(C)c1`, the half-maximal inhibitory concentration (IC50) worked out at 5600 nM. Then `CCN(C(=O)c1ccc(CNc2ncnc(NCc3ccc(OC)c(OC)c3)n2)cc1)c1cccc(C)c1`, with 158 nM. On to `CCN(C)C(=O)c1ccc(CNc2nc(NCCN(C)C)nc(N3CCc4ccccc4C3)n2)cc1`, for which the concentration for half-maximal inhibition (IC50) stood at 43 nM.
